Results taken from BigSolDB 2.1.

CC(C(=O)O)c1ccc2c(c1)CC(=O)c1ccccc1S2 (stereo not drawn)
solubility (mole fraction)
Conditions	278.15 K	283.15 K	288.15 K	293.15 K	298.15 K	303.15 K	308.15 K	313.15 K	318.15 K	323.15 K
in 1,4-dioxane	–	–	0.0923	0.103	0.114	0.127	0.142	0.157	0.173	0.19
in 2-ethoxyethanol	0.0373	0.0458	0.0518	0.0596	0.0677	0.0779	0.0911	0.106	0.12	0.136
in 2-methoxyethanol	0.0278	0.036	0.0437	0.0516	0.0619	0.074	0.0878	0.102	0.119	0.138
in ethanol	0.00265	0.00396	0.00522	0.0071	0.00956	0.012	0.0166	0.0222	0.03	0.0418
in ethyl acetate	0.00812	0.00951	0.0112	0.0131	0.0154	0.0176	0.0216	0.0256	0.0304	0.0362
